Test results published in BigSolDB 2.1.

COc1c(C)c2c(c(O)c1C/C=C(\C)CCC(=O)OCCN1CCOCC1)C(=O)OC2
solubility (mole fraction)
Conditions | in DMSO | in ethanol | in ethyl acetate | in ethylene glycol | in isopropanol | in n-butanol | in propylene glycol | in transcutol | in water
298.2 K | 0.023 | 0.00613 | 0.0689 | 0.000715 | 0.00852 | 0.0108 | 0.00105 | 0.0393 | 1.75e-06
303.2 K | 0.0272 | 0.00676 | 0.0744 | 0.000858 | 0.00934 | 0.0119 | 0.00126 | 0.0421 | 2.29e-06
308.2 K | 0.0328 | 0.00749 | 0.0802 | 0.00103 | 0.0102 | 0.0132 | 0.00147 | 0.0452 | 2.87e-06
313.2 K | 0.0388 | 0.00833 | 0.0856 | 0.0012 | 0.0111 | 0.0144 | 0.00168 | 0.0486 | 3.49e-06
318.2 K | 0.0439 | 0.00906 | 0.0928 | 0.0014 | 0.0121 | 0.0159 | 0.00193 | 0.0522 | 4.16e-06

Conditions | solubility (mole fraction)
in PEG-400, 298.2 K | 0.0271
in PEG-400, 303.2 K | 0.0312
in PEG-400, 308.2 K | 0.0355
in PEG-400, 313.2 K | 0.0399
in PEG-400, 318.2 K | 0.0449
